Target: T1, AtSOX (secreted sulfhydryl oxidase from Aspergillus tubingensis) (Aspergillus tubingensis, UniProt Z9JMF6K8Z8)
T1 construct: native secreted enzyme purified from culture medium; signal peptide removed; predicted N-terminus SSIPQ
T1 sequence (Z9JMF6K8Z8 20-393): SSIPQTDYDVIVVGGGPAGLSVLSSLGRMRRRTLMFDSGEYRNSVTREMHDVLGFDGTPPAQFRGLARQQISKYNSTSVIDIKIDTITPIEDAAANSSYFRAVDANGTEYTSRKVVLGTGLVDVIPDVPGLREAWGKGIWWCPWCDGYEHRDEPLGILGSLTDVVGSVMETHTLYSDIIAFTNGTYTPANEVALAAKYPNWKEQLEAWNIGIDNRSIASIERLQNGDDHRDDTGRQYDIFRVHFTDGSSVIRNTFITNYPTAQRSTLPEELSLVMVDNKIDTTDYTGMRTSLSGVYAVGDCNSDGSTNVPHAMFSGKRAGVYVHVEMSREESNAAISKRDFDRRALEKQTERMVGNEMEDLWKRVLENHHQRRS
Test: UV-vis and fluorescence spectra; release of flavin by thermal denaturation
Format: binding
Details: non-covalently bound, copurified; 20 mM Tris-HCl pH 7.5, 20 °C

Cc1cc2nc3c(=O)[nH]c(=O)nc-3n(C[C@H](O)[C@H](O)[C@H](O)COP(=O)(O)OP(=O)(O)OC[C@H]3O[C@@H](n4cnc5c(N)ncnc54)[C@H](O)[C@@H]3O)c2cc1C [FAD, flavin adenine dinucleotide]
UV-vis and fluorescence spectra; release of flavin by thermal denaturation: The enzyme had a non-covalently bound FAD as a cofactor
